Test results: publication PMC8778818, “Synthesis, Structural Characterization and Anticancer Activity of New 5-Trifluoromethyl-2-thioxo-thiazolo[4,5-d]pyrimidine Derivatives” (Pharmaceuticals, 2022)

Columns and labels:
[1] = tested on: SNB-75; experiment: NCI-60 screen, CNS Cancer SNB-75; type: cell-based, human; settings: for Growth of Cells (%): SNB-75, 10^−5 M one dose
[2] = tested on: MALME-3M; experiment: NCI-60 screen, Melanoma MALME-3M; type: cell-based, human; settings: for Growth of Cells (%): 10^−5 M one dose
[3] = tested on: A549/ATCC; experiment: NCI-60 screen, Non-Small Cell Lung Cancer A549/ATCC; type: cell-based, human; settings: for Growth of Cells (%): 10^−5 M one dose
[4] = tested on: K-562; experiment: NCI-60 screen, Leukemia K-562; type: cell-based, human; settings: for Growth of Cells (%): K-562, 10^−5 M one dose
[5] = tested on: HCT-15; experiment: NCI-60 screen, Colon Cancer HCT-15; type: cell-based; settings: for Growth of Cells (%): HCT-15, 10^−5 M one dose
[6] = tested on: LOX IMVI; experiment: NCI-60 screen, Melanoma LOX IMVI; type: cell-based, human; settings: for Growth of Cells (%): 10^−5 M one dose
[7] = tested on: C32; experiment: MTT cell viability assay, C32; type: cell-based, human; settings: Homo sapiens, 72 h; for IC50: C32, MTT, mean ± SD
Experimental: (§1) Twelve compounds (2a-e, 3a-d and 4a-c) at a concentration range of 50–5000 μM were tested for their antiproliferative potential against four human cancer cell lines (A375—melanotic melanoma, C32—amelanotic melanoma, DU145—prostate cancer androgen-independent, MCF-7/WT—breast adenocarcinoma) and two normal cell lines: Chinese Hamster Ovary (CHO-K1) and immortalized human keratinocytes from histologically normal skin (HaCaT).
(§2) To determine the antiproliferative activity of newly synthesized compounds, the following cell lines were used: human melanotic melanoma cell line (A375), human amelanotic melanoma cell line (C32), human breast adenocarcinoma cell line (MCF-7/WT), human prostate cancer androgen-independent (DU145) and two normal cell lines: hamster ovarian (CHO-K1) and immortalized human keratinocytes from histologically normal skin (HaCaT). The cells were obtained from the cell line bank of the Department of Molecular and Cellular Biology, Wroclaw Medical University. A375, C32, MCF-7/WT, DU145 and HaCaT cells were grown in a monolayer cultured in Dulbecco’s Modified Eagle’s Medium (DMEM, Sigma-Aldrich, Poznań, Poland), supplemented with 10% of fetal bovine serum (FBS, Gibco, Paisley, UK) and 1% of antibiotics (penicillin/streptomycin, Sigma-Aldrich) and CHO-K1 were grown in HAM’s F-12 medium (Sigma-Aldrich), supplemented with 10% fetal bovine serum (FBS, Gibco) and 1% of antibiotics (penicillin/streptomycin, Sigma-Aldrich). Cell lines were cultured in the polystyrene flasks 25 or 75 cm^2 (Thermo Fisher Scientific, Waltham, MA, USA), which were stored in 37 °C and 5% CO2 in a humidified 95% atmosphere (SteriCult, Thermo Scientific, Alab). The cell medium was exchanged twice a week. The exponentially growing cells were used throughout the experiments. The cells were rinsed with phosphate-buffered saline (PBS, Sigma-Aldrich) and trypsinized by Trypsin-EDTA 0.25% solution (Sigma-Aldrich).
(§3) The influence of the compounds was performed in a monolayer culture on cancer and normal cells. Compounds were initially dissolved in DMSO; further dilutions of the compound were performed in Dulbecco’s Modified Eagle’s Medium supplemented with 10% FBS. Compounds were tested in a 50–5000 µM concentration range. In the in vitro experiments, the concentrations of DMSO in the final solution of the compounds were used 0.05%; 0.1%; 0.5%; 1%, respectively.
(§4) Cell viability was determined using the MTT colorimetric assay. All cell lines were seeded into 96-well plates to a density of 3 × 10^4 cells/well. After 24 h, the culture supernatants were removed and appropriate dilutions of compounds in the culture medium (200 µL/well) were added to the cells’ monolayer cultures and incubated for an additional 72 h. After 72 h of exposition to the compounds and the removal of the culture medium, cell viability was determined by reducing the yellow dye 3-(4,5-dimethyl-2-thiazol)-2,5-diphenyl-2H-tetrazolium bromide (MTT assay, Sigma Saint Louis, MO, USA; In Vitro Toxicology Assay) to a blue formazan product. The absorbance of the resulting solutions in three duplicate experiments was measured at the wavelength of 560 nm in a microplate reader (EnSpire, Perkin Elmer, Kraków, Poland). MTT assay is a colorimetric method that estimates the rate of metabolism in viable cells. Absorbance is directly proportional to the number of viable cells. All the experiments were performed three times and the mean absorbance values were calculated. The methodology for the evaluation of the growth of human cancer and normal cells was described previously. The cell viability in each group was expressed as a percentage of control (untreated) cells.

[8] = tested on: SK-OV-3; experiment: NCI-60 screen, Ovarian Cancer SK-OV-3; type: cell-based, human; settings: for Growth of Cells (%): SK-OV-3, 10^−5 M one dose
[9] = tested on: A375; experiment: MTT cell viability assay, A375; type: cell-based, human; settings: Homo sapiens; for IC50: A-375, 72 h, A375, MTT, mean ± SD
Experimental: as §1, §2, §3, §4

[10] = tested on: SK-MEL-5; experiment: NCI-60 screen, Melanoma SK-MEL-5; type: cell-based, human; settings: for Growth of Cells (%): SK-MEL-5, 10^−5 M one dose
[11] = Homo sapiens, SNB-75, five doses 10^−4–10^−8 M
[12] = Homo sapiens, five doses 10^−4–10^−8 M

Question: What does the source list for `O=c1[nH]c(C(F)(F)F)nc2c1sc(=S)n2-c1ccccc1` [Compound 2b, 3-phenyl-2-thioxo-5-(trifluoromethyl)-2,3-dihydro[1, 3]thiazolo[4,5-d]pyrimidin-7(6H)-one]?
Answer: Growth of Cells (%) [1]: 91.21%; Growth of Cells (%) [2]: 121.70%; Growth of Cells (%) [3]: 103.88%; Growth of Cells (%) [4]: 115.47%; Growth of Cells (%) [5]: 106.95%; Growth of Cells (%) [6]: 84.58%; IC50 [7]: 496 ± 20.4 µM; Growth of Cells (%) [8]: 108.53%; IC50 [9]: 367 ± 15.1 µM

Question: `FC(F)(F)c1nc(Cl)c2sc(=S)n(-c3ccccc3)c2n1` [Compound 3b, 7-chloro-3-phenyl-5-(trifluoromethyl)[1, 3]thiazolo[4,5-d]pyrimidine-2(3H)-thione] was tested. Which GI50 ([10]; Homo sapiens, SK-MEL-5, five doses 10^−4–10^−8 M) did it give?
Answer: 2.19 µM

Question: What about the CC50 ([10]; Homo sapiens, SK-MEL-5, five doses 10^−4–10^−8 M, read-out: log LC50 (the source's name) (converted)) of the same compound?
Answer: 12.3 µM

Question: And the “Growth of Cells (%)” value [10]?
Answer: 81.95%

Question: And the “log TGI” value ([10]; SK-MEL-5, five doses 10^−4–10^−8 M)?
Answer: −5.31 log M

Question: What about the GI50 [1, 11] of the same compound?
Answer: 2 µM

Question: And the LC50 [1, 11]?
Answer: 8.91 µM

Question: And the “log TGI” value ([1]; SNB-75, five doses 10^−4–10^−8 M)?
Answer: −5.38 log M

Question: What about the “Growth of Cells (%)” value [2] of the same compound?
Answer: 40.72%

Question: And the GI50 [2, 12]?
Answer: 2.29 µM

Question: And the LC50 (concentration causing 50% cell kill) [2, 12]?
Answer: 8.13 µM

Question: What about the “log TGI” value ([2]; five doses 10^−4–10^−8 M) of the same compound?
Answer: −5.37 log M

Question: What about the “Growth of Cells (%)” value [3] of the same compound?
Answer: 91.16%

Question: What about the GI50 [3, 12] of the same compound?
Answer: 7.59 µM

Question: What about the LC50 [3, 12] of the same compound?
Answer: 53.7 µM

Question: And the “log TGI” value ([3]; five doses 10^−4–10^−8 M)?
Answer: −4.66 log M

Question: And the GI50 ([4]; Homo sapiens, K562, K-562, five doses 10^−4–10^−8 M)?
Answer: 0.692 µM

Question: And the CC50 ([4]; Homo sapiens, K562, K-562, five doses 10^−4–10^−8 M, read-out: log LC50 (the source's name) (converted))?
Answer: > 100 µM

Question: And the “Growth of Cells (%)” value [4]?
Answer: 33.07%

Question: What about the “log TGI” value ([4]; K-562, five doses 10^−4–10^−8 M) of the same compound?
Answer: −5.36 log M

Question: What about the “Growth of Cells (%)” value [5] of the same compound?
Answer: 2.98%

Question: And the “log TGI” value ([5]; HCT-15, five doses 10^−4–10^−8 M)?
Answer: −5.26 log M

Question: And the GI50 ([5]; Homo sapiens, HCT-15, read-out: log GI50 (converted))?
Answer: 1.86 µM

Question: And the CC50 ([5]; Homo sapiens, HCT-15, five doses 10^−4–10^−8 M, read-out: log LC50 (the source's name) (converted))?
Answer: > 100 µM

Question: What about the “Growth of Cells (%)” value [6] of the same compound?
Answer: 3.11%

Question: What about the GI50 [6, 12] of the same compound?
Answer: 1.78 µM

Question: And the LC50 [6, 12]?
Answer: 6.17 µM

Question: What about the “log TGI” value ([6]; five doses 10^−4–10^−8 M) of the same compound?
Answer: −5.48 log M

Question: What about the IC50 [7] of the same compound?
Answer: 24.4 ± 0.5 µM

Question: And the viability at 50 µM ([7]; C32 amelanotic melanoma, 50 µM)?
Answer: 20%

Question: What about the GI50 ([8]; Homo sapiens, SK-OV-3, five doses 10^−4–10^−8 M) of the same compound?
Answer: 4.9 µM

Question: And the CC50 ([8]; Homo sapiens, SK-OV-3, five doses 10^−4–10^−8 M, read-out: log LC50 (the source's name) (converted))?
Answer: > 100 µM

Question: What about the “Growth of Cells (%)” value [8] of the same compound?
Answer: 101.94%

Question: What about the “log TGI” value ([8]; SK-OV-3, five doses 10^−4–10^−8 M) of the same compound?
Answer: −4.97 log M

Question: What about the IC50 [9] of the same compound?
Answer: 25.4 ± 0.5 µM

Question: What about the viability at 50 µM ([9]; A-375, A375 melanotic melanoma, 50 µM, 72 h) of the same compound?
Answer: 20%

Question: For `CCNc1nc(C(F)(F)F)nc2c1sc(=S)n2-c1ccccc1` [Compound 4b, 7-(ethylamino)-3-phenyl-5-(trifluoromethyl)[1, 3]thiazolo[4,5-d]pyrimidine-2(3H)-thione], which “Growth of Cells (%)” value [10] is on record?
Answer: 87.63%

Question: What about the “Growth of Cells (%)” value [1] of the same compound?
Answer: 99.24%

Question: What about the “Growth of Cells (%)” value [2] of the same compound?
Answer: 144.23%

Question: What about the “Growth of Cells (%)” value [3] of the same compound?
Answer: 74.36%

Question: What about the “Growth of Cells (%)” value [4] of the same compound?
Answer: 102.59%

Question: And the “Growth of Cells (%)” value [5]?
Answer: 94.67%

Question: And the “Growth of Cells (%)” value [6]?
Answer: 88.57%

Question: What about the IC50 [7] of the same compound?
Answer: 356 ± 15.2 µM

Question: And the “Growth of Cells (%)” value [8]?
Answer: 101.70%

Question: What about the IC50 [9] of the same compound?
Answer: 524 ± 22.3 µM

Question: `Fc1ccc(CNc2nc(C(F)(F)F)nc3c2sc(=S)n3-c2ccccc2)cc1` [Compound 4c] was tested. Which “Growth of Cells (%)” value [10] did it give?
Answer: 105.71%

Question: And the “Growth of Cells (%)” value [1]?
Answer: 103.11%

Question: And the “Growth of Cells (%)” value [2]?
Answer: 106.31%

Question: What about the “Growth of Cells (%)” value [3] of the same compound?
Answer: 98.32%

Question: What about the “Growth of Cells (%)” value [4] of the same compound?
Answer: 107.45%

Question: What about the “Growth of Cells (%)” value [5] of the same compound?
Answer: 103.39%

Question: What about the “Growth of Cells (%)” value [6] of the same compound?
Answer: 109.59%

Question: And the IC50 [7]?
Answer: 485 ± 21.2 µM

Question: What about the “Growth of Cells (%)” value [8] of the same compound?
Answer: 99.96%

Question: And the IC50 [9]?
Answer: 507 ± 22.1 µM
